Test results: patent US7652015B2, “Kinase inhibitors” (Eli Lilly and Company, priority 2006, dated 2010)
Where a name gives a salt, the structure may show the parent alone. Read-outs that look alike come from different tables or passages of the source.

Tests used:
[1] = system: p-MAPKAPK2; assay: Inhibition of p-MAPKAPK2 in vitro, anisomycin-stimulated RAW 264.7 cells, ELISA; assay type: cell-based, murine; settings: Mus musculus, RAW264.7; RAW 264.7 cells, 2 hours compound, anisomicin 100 ug/ml 30 minutes; read-out: IC50, inhibition of p-MAPKAPK2 in vitro
Procedure: RAW 264.7 cells (a murine monocytic/macrophage line ATCC) are seeded at a density of 50,000 cells/well in 96-well plates with RPMI-1640 medium plus 10% fetal bovine serum (FBS) and allowed to settle and adhere to the bottom of the well for 48 hours. After reaching confluence, cells are treated for 2 hours with 10 serial dilutions of different compounds. A control compound is always included. After 2 hours, anisomicin (100 ug/ml) is added and cells are incubated for 30 minutes at 37° C. under a 5% CO2 atmosphere. Then, cells are fixed and treated with hydrogen peroxide in order to remove endogenous peroxidase. Finally, plates are blocked with FBS, washed, and an ELISA assay is carried out by using an antiphospho-MAPKAPK (Thr 334, Cell Signalling, Cat # 3041) antibody and ahP-Conjugated Secondary Antibody. This reaction is detected by using FEMTO (Pierce) which is an enhanced chemiluminiscent substrate ahP that results in rapid kinetic light output and high signal intensity.

[2] = system: p-MAPKAPK2; assay: as above; assay type: cell-based, murine; settings: Mus musculus, RAW264.7, in the presence of 100% serum

IC50 [1] [nM]	IC50 [2] [nM]	Structure (SMILES)
6.7		Cc1ccc(-n2nc(C(C)(C)C)cc2NC(=O)Nc2ccc(N3CCN(C(=O)c4c(Cl)cccc4Cl)CC3)nc2C)cc1 [Example 45, 1-(5-tert-Butyl-2-p-tolyl-2H-pyrazol-3-yl)-3-{6-[4-(2,6-dichloro-benzoyl)-piperazin-1-yl]-2-methyl-pyridin-3-yl}-urea methanesulfonate]
176		Cc1ccc(-n2nc(C(C)(C)C)cc2NC(=O)Nc2ccc(OC3CCN(C(=O)C4(C)CC4)CC3)nc2C)cc1 [Example 77, 1-(5-tert-Butyl-2-p-tolyl-2H-pyrazol-3-yl)-3-{2-methyl-6-[1-(1-methyl-cyclopropanecarbonyl)-piperidin-4-yloxy]-pyridin-3-yl}-urea]
16		Cc1ccc(-n2nc(C(C)(C)C)cc2NC(=O)Nc2ccc(OC3CCN(C(=O)c4ccc(Cl)s4)CC3)nc2)cc1 [Example 92, 1-(5-tert-Butyl-2-p-tolyl-2H-pyrazol-3-yl)-3-{6-[1-(5-chloro-thiophene-2-carbonyl)-piperidin-4-yloxy]-pyridin-3-yl}-urea]
286		Cc1ccc(-n2nc(C(C)(C)C)cc2NC(=O)Nc2cnc(N3CCN(C(=O)C4(C)CC4)CC3)cc2C)cc1 [Example 128, 1-(5-tert-Butyl-2-p-tolyl-2H-pyrazol-3-yl)-3-{4-methyl-6-[4-(1-methyl-cyclopropanecarbonyl)-piperazin-1-yl]-pyridin-3-yl}-urea mesylate]

Continued, molecule first:

Structure (SMILES)	IC50 [1] [nM]	IC50 [2] [nM]
Cc1ccc(-n2nc(C(C)(C)C)cc2NC(=O)Nc2ccc(N3CCN(C(=O)c4ccccc4Cl)CC3)nc2C)cn1 [Example 111, 1-[5-tert-Butyl-2-(6-methyl-pyridin-3-yl)-2H-pyrazol-3-yl]-3-{6-[4-(2-chloro-benzoyl)-piperazin-1-yl]-2-methyl-pyridin-3-yl}-urea mesylate]		≤ 500
Cc1ccc(-n2nc(C3(C(F)(F)F)CC3)cc2NC(=O)Nc2ccc(N3CCN(C(=O)c4sccc4C)CC3)nc2C)cn1 [Example 113, 1-{2-Methyl-6-[4-(3-methyl-thiophene-2-carbonyl)-piperazin-1-yl]-pyridin-3-yl}-3-[2-(6-methyl-pyridin-3-yl)-5-(1-trifluoromethyl-cyclopropyl)-2H-pyrazol-3-yl]-urea mesylate]		≤ 500
Cc1ccc(-n2nc(C3(C(F)(F)F)CC3)cc2NC(=O)Nc2ccc(N3CCN(C(=O)c4ccccc4Cl)CC3)nc2C)cn1 [Example 114, 1-{6-[4-(2-Chloro-benzoyl)-piperazin-1-yl]-2-methyl-pyridin-3-yl}-3-[2-(6-methyl-pyridin-3-yl)-5-(1-trifluoromethyl-cyclopropyl)-2H-pyrazol-3-yl]-urea mesylate]		≤ 500
Cc1ccc(-n2nc(C3(C(F)(F)F)CC3)cc2NC(=O)Nc2ccc(N3CCN(C(=O)c4ccccc4F)CC3)nc2C)cn1 [Example 115, 1-{6-[4-(2-Fluoro-benzoyl)-piperazin-1-yl]-2-methyl-pyridin-3-yl}-3-[2-(6-methyl-pyridin-3-yl)-5-(1-trifluoromethyl-cyclopropyl)-2H-pyrazol-3-yl]-urea mesylate]		≤ 500
Cc1ccc(-n2nc(C(C)(CF)CF)cc2NC(=O)Nc2ccc(N3CCN(C(=O)c4ccccc4C)CC3)nc2C)cc1 [Example 119, 1-[5-(2-Fluoro-1-fluoromethyl-1-methyl-ethyl)-2-p-tolyl-2H-pyrazol-3-yl]-3-{2-methyl-6-[4-(2-methyl-benzoyl)-piperazin-1-yl]-pyridin-3-yl}-urea]		≤ 500
